Measured values taken from PubChem BioAssay AID1963847 (Molecular Pharmacology Branch, DTP, NCI, 2024).
Values joined by “and” are separate entries in the source; they are usually repeats but may differ in a detail not shown here. Equal values may be shown once.

System: 415267-285-R-J2-PDC complex spheroid viability
Experiment: Anticancer human tumor 415267-285-R-J2-PDC patient-derived breast carcinoma cell line growth inhibition [POLQ]
Details: for viability, T/C: stronger effect = lower value
Description: Multicellular complex tumor spheroid response to Polymerase (POL) inhibitors (novobiocin, ART-558, RP6685) in combination with a variety of drugs and investigational agents in selected tumor cell lines
The POL inhibitors (novobiocin, ART-558, and RP6685) were evaluated both individually and in combination with standard of care and investigational anticancer small molecules within a complex spheroid model of solid tumors. . Complex spheroids include a stromal component modeled by human endothelial cells (HUVEC) and fibroblasts modeled by human mesenchymal stem cells (MSCs). The concentration ranges selected for each drug and investigational agent were based upon clinically achievable concentrations if the clinical Cmax of the agent was known.
Compounds. The drugs and investigational agents: novobiocin (NSC847541), ART-558 (NSC835418), RP-6685 (NSC848927), peposertib (NSC802822), ceralasertib (NSC780249), elimusertib (NSC800525), camonsertib (NSC841442), AZD-1390 (NSC803789), olaparib (NSC753686), talazoparib (NSC767125), rucaparib (NSC756644), sotorasib (NSC818433), MRTX-1133 (NSC836407), SN-38 (NSC673596), topotecan (NSC609699), epotoside (NSC141540), doxorubicin (NSC123127), gemcitabine (NSC613327), 5-fluorouracil (NSC19893), paclitaxel (NSC125973), vemurafenib (NSC761431), MSA-2 (NSC828583), SN-011 (NSC837082), adavosertib (NSC754352), prexasertib (NSC758257), carboplatin (NSC241240) and oxaliplatin (NSC266046), were obtained from the National Cancer Institute (NCI) Developmental Therapeutics Program Chemical Repository (21). The FDA-approved anticancer drug set is available from the Developmental Therapeutics Program at https://dtp.cancer.gov/organization/dscb/obtaining/. […] The stock solutions were prepared in dimethyl sulfoxide (DMSO, Sigma-Aldrich, St. Louis, MO, cat. D2650), except for the platinum compounds which were prepared in saline (Quality Biological, Gaithersburg, MD, cat. 114-055-101), at 800-fold the tested concentration and stored at -70 degrees C prior to their use. All drugs and investigational agents were tested over a range starting from a high concentration at or near the clinical Cmax and decreasing in half-log increments. If the clinical Cmax for an agent had not been determined, the highest concentration tested was 10 microM, except for SN-38, which was tested at a high concentration of 1 microM.
Cell Culture. All cells were maintained in an incubator at 37 degrees C and 5% CO2 with 95% humidity. The PDC lines were cultured according to standard operating procedures established by the NCI PDMR (https://pdmr.cancer.gov). Table 3 of the manuscript, lists the cell lines along with the number of the three cell types plated to form the mct-spheroids and media for tumor cell growth. After thawing, all PDC lines, except 997537-175-T-J1-PDC and 415267-285-R-J2-PDC, were cultured in Matrigel-coated flasks prepared with a working solution of 1X Ham's F-12 nutrient mix, without supplementation (Thermo Fisher Scientific, cat. 11765054), 100 U/mL penicillin-streptomycin (Thermo Fisher Scientific, cat. 15140122), and 2.5% Matrigel (Corning Inc., Corning, NY, cat. 354248) for the first three passages. The two PDC lines 997537-175-T-J1-PDC and 415267-285-R-J2-PDC were cultured on uncoated flasks. The 857933-349-R-J2-PDC line was cultured in 6C/Colon 1B media containing advanced DMEM/F-12 (Thermo Fisher Scientific, cat. 12634028), 10 mM HEPES (Thermo Fisher Scientific, cat. 15630080), 1X GlutaMAX supplement (Thermo Fisher Scientific, cat. 35050061), 0.1 mg/mL primocin (InvivoGen, San Diego, CA, cat. ant-pm-2), 10% defined fetal bovine serum, heat inactivated (HyClone Laboratories Inc., Logan, UT, cat. SH30070.03HI), 50% L-WRN conditioned media (ATCC, cat. CRL-3276), 1.25 mM N-Acetyl-L-cysteine (Sigma-Aldrich, cat. A9165), 10 mM nicotinamide (Sigma-Aldrich, cat. N0636), 1X B-27 supplement (Thermo Fisher Scientific, cat. 17504044), 1X N-2 supplement (Thermo Fisher Scientific, cat. […]
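Further: spheroids exposed to compounds for one week before readout.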
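Wherever viability, T/C is given: luminescence used as stand-in measure of viable cells; 100% = DMSO vehicle control viability.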

In the case of `CC[C@@]1(O)C(=O)OCc2c1cc1n(c2=O)Cc2cc3c(CN(C)C)c(O)ccc3nc2-1`, the viability, T/C (compound 0.000316 µM) is reported as 95.8% and 95.3% and 99.4%, the viability, T/C (compound 0.001 µM) is reported as 113% and 97% and 101% and the viability, T/C (compound 0.00316 µM) is reported as 103% and 108% and 98.3%. For the same compound, the viability, T/C (compound 0.01 µM) was 90.7% and 108% and 86.8%, the viability, T/C (compound 0.0316 µM) was 25.3% and 37.5% and 22.8% and the viability, T/C (compound 0.1 µM) was 7.48% and 7.95% and 7.34%. The IC50 (curve of compound) was 0.0205 µM and 0.0253 µM and 0.0194 µM.
`CC1COCCN1c1cc(C2(S(C)(=N)=O)CC2)nc(-c2ccnc3[nH]ccc23)n1` (stereo not drawn) was tested, and the viability, T/C (compound 0.0316 µM) was 96.2% and 107% and 97.5%, the viability, T/C (compound 0.1 µM) was 93.1% and 103% and 94.9% and the viability, T/C (compound 0.316 µM) was 69.9% and 86.8% and 66.4%. The viability, T/C (compound 1 µM) was 12.1% and 15.8% and 13%, the viability, T/C (compound 3.16 µM) was 7.35% and 7.07% and 7.38% and the viability, T/C (compound 10 µM) was 5.4% and 3.22% and 5.26%. For the same compound, the IC50 (curve of compound) was 0.47 µM and 0.575 µM and 0.45 µM.
For `COc1cc(C2c3cc4c(cc3C(OC3OC5COC(C)OC5C(O)C3O)C3COC(=O)C23)OCO4)cc(OC)c1O` (stereo not drawn), the viability, T/C (compound 0.0316 µM) was 91.8% and 103% and 92%, the viability, T/C (compound 0.1 µM) was 59.7% and 89.7% and 71.3% and the viability, T/C (compound 0.316 µM) was 14.1% and 19.4% and 17.1%. The viability, T/C (compound 1 µM) was 7.22% and 5.65% and 8.76%, the viability, T/C (compound 3.16 µM) was 4.9% and 4.07% and 5.15% and the viability, T/C (compound 10 µM) was 5.87% and 5.42% and 6.28%. For the same compound, the IC50 (curve of compound) was 0.128 µM and 0.192 µM and 0.157 µM.
In the case of `Cc1cccc(N(C)C(=O)C2C(O)CCN2c2nc(C)cc(C(F)(F)F)c2C#N)c1` (stereo not drawn), the viability, T/C (compound 0.0316 µM) is reported as 99.1% [middle of 13 runs], the viability, T/C (compound 0.1 µM) is reported as 100% [middle of 13 runs] and the viability, T/C (compound 0.316 µM) is reported as 102% [middle of 13 runs]. The viability, T/C (compound 1 µM) was 103% [middle of 13 runs], the viability, T/C (compound 3.16 µM) was 104% [middle of 13 runs] and the viability, T/C (compound 10 µM) was 98.5% [middle of 13 runs]. It also gave an IC50 (compound alone, run of 01/08/2024) of over 10 µM and an IC50 (compound alone, run of 01/19/2024) of over 10 µM.
`CNCc1ccc(-c2[nH]c3cc(F)cc4c3c2CCNC4=O)cc1` was tested, and the viability, T/C (compound 0.0316 µM) was 107% and 95.9% and 101%, the viability, T/C (compound 0.1 µM) was 109% and 115% and 101% and the viability, T/C (compound 0.316 µM) was 96.2% and 94.8% and 102%. For the same compound, the viability, T/C (compound 1 µM) was 94.9% and 105% and 102%, the viability, T/C (compound 3.16 µM) was 108% and 96% and 106% and the viability, T/C (compound 10 µM) was 103% and 98.2% and 107%. For the same compound, the IC50 (curve of compound) was over 10 µM.
`COc1cccc(OCCCN)c1-c1cc(Nc2cnc(C#N)cn2)n[nH]1` + Cc1cccc(N(C)C(=O)C2C(O)CCN2c2nc(C)cc(C(F)(F)F)c2C#N)c1 showed an IC50 (curve of first compound, second compound 0.0316 µM) of 0.00734 µM, an IC50 (curve of first compound, second compound 0.1 µM) of 0.00681 µM and an IC50 (curve of first compound, second compound 0.316 µM) of 0.00637 µM. The IC50 (curve of first compound, second compound 1 µM) was 0.00594 µM, the IC50 (curve of first compound, second compound 3.16 µM) was 0.0059 µM and the IC50 (curve of first compound, second compound 10 µM) was 0.00577 µM. For the same compound, the viability, T/C (second compound 0.0316 µM, first compound 0.00316 µM) was 116%, the viability, T/C (second compound 0.0316 µM, first compound 0.01 µM) was 25.7% and the viability, T/C (second compound 0.0316 µM, first compound 0.0316 µM) was 6.57%. For the same compound, the viability, T/C (second compound 0.0316 µM, first compound 0.1 µM) was 5.98%, the viability, T/C (second compound 0.0316 µM, first compound 0.316 µM) was 5.5% and the viability, T/C (second compound 0.0316 µM, first compound 1 µM) was 4.04%. It also gave a viability, T/C (second compound 0.1 µM, first compound 0.00316 µM) of 106%, a viability, T/C (second compound 0.1 µM, first compound 0.01 µM) of 22.1% and a viability, T/C (second compound 0.1 µM, first compound 0.0316 µM) of 5.33%. It also gave a viability, T/C (second compound 0.1 µM, first compound 0.1 µM) of 6.85%, a viability, T/C (second compound 0.1 µM, first compound 0.316 µM) of 7.24% and a viability, T/C (second compound 0.1 µM, first compound 1 µM) of 4.47%. The viability, T/C (second compound 0.316 µM, first compound 0.00316 µM) was 107%, the viability, T/C (second compound 0.316 µM, first compound 0.01 µM) was 13% and the viability, T/C (second compound 0.316 µM, first compound 0.0316 µM) was 5.56%. The viability, T/C (second compound 0.316 µM, first compound 0.1 µM) was 4.64%, the viability, T/C (second compound 0.316 µM, first compound 0.316 µM) was 4.82% and the viability, T/C (second compound 0.316 µM, first compound 1 µM) was 4.6%. It also gave a viability, T/C (second compound 1 µM, first compound 0.00316 µM) of 99.2%, a viability, T/C (second compound 1 µM, first compound 0.01 µM) of 9.45% and a viability, T/C (second compound 1 µM, first compound 0.0316 µM) of 5.53%. For the same compound, the viability, T/C (second compound 1 µM, first compound 0.1 µM) was 5.41%, the viability, T/C (second compound 1 µM, first compound 0.316 µM) was 6.23% and the viability, T/C (second compound 1 µM, first compound 1 µM) was 4.72%. For the same compound, the viability, T/C (second compound 3.16 µM, first compound 0.00316 µM) was 97.3%, the viability, T/C (second compound 3.16 µM, first compound 0.01 µM) was 10.1% and the viability, T/C (second compound 3.16 µM, first compound 0.0316 µM) was 7.08%. It also gave a viability, T/C (second compound 3.16 µM, first compound 0.1 µM) of 5.58%, a viability, T/C (second compound 3.16 µM, first compound 0.316 µM) of 5.55% and a viability, T/C (second compound 3.16 µM, first compound 1 µM) of 4.93%. The viability, T/C (second compound 10 µM, first compound 0.00316 µM) was 94.3%, the viability, T/C (second compound 10 µM, first compound 0.01 µM) was 9.4% and the viability, T/C (second compound 10 µM, first compound 0.0316 µM) was 6.2%. It also gave a viability, T/C (second compound 10 µM, first compound 0.1 µM) of 10.2%, a viability, T/C (second compound 10 µM, first compound 0.316 µM) of 5.74% and a viability, T/C (second compound 10 µM, first compound 1 µM) of 5.13%.
